# In US20230406865A1, “CRYSTAL FORM OF FREE BASE OF INHIBITOR CONTAINING BICYCLIC RING DERIVATIVE AND PREPARATION METHOD AND APPLICATION OF CRYSTAL FORM” (SHANGHAI HANSOH BIOMEDICAL CO., LTD., priority 2020, published 2023):
# pIC50: −log10 of the molar value.
# Molecular target: hERG (Homo sapiens, UniProt Q12809)
# Assay: cell-based
# Procedure: Terfenadine (Sigma-Aldrich, MKBX6318V); • HEK293-hERG cell line (human embryonic kidney cells stably expressing hERG channels), provided by Academy of Military Medical Sciences.
# Human embryonic kidney cells (HEK293) stably expressing hERG channels were cultured in DMEM medium (DMEM, HyClone) in a 37° C. cell incubator containing 5% CO2. About 10% fetal bovine serum (FBS, gibco) was added to the cell culture medium.
# Human embryonic kidney cells stably expressing hERG channels (HEK293-hERG) were used for the experiment. HEK293 cells were clamped with the Multi Clamp 700B manual patch clamp system to form a whole-cell voltage clamp pattern, and hERG current was induced with the corresponding voltage. […] The peak values of tail current recorded under the solvent control were taken as 100%, and the data of positive control and test samples were standardized. Curve fitting and IC50 calculation were done in the software GraphPad Prism 5.00 using the standard Hill equation.
# Sequence of hERG (Q12809 whole entry): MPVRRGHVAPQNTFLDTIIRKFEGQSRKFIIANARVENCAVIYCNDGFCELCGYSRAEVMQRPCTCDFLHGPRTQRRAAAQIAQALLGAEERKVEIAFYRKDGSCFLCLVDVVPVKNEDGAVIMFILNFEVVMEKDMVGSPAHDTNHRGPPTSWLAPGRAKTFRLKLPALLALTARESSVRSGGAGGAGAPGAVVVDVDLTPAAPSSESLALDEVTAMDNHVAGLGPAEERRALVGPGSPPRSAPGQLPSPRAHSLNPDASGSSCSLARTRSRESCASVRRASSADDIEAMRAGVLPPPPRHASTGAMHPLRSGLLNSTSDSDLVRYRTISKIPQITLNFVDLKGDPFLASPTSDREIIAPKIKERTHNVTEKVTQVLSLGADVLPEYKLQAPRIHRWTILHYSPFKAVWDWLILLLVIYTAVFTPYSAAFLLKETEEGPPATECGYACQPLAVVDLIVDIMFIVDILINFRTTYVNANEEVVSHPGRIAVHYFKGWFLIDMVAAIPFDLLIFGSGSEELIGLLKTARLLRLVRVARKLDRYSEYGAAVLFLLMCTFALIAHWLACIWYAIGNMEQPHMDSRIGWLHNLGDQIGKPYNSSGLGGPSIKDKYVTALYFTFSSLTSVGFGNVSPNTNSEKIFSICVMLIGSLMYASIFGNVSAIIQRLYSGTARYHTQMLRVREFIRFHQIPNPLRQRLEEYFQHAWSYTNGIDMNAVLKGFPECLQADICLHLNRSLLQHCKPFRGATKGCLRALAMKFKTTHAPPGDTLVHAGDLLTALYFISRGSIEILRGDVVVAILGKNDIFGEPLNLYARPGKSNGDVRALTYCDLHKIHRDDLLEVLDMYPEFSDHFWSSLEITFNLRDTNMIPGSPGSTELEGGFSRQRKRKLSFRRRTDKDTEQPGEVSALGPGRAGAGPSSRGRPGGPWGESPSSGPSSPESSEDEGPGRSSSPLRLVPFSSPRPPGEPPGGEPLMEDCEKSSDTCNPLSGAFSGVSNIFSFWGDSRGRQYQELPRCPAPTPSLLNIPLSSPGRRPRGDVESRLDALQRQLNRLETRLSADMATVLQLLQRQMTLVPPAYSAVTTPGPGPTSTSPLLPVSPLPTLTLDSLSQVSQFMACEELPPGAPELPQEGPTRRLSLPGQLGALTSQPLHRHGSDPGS
compound,measurement,setting,value
"C#C[C@@](C)(O)COc1cc(-c2ccc(N3CC4CC(C3)N4Cc3ccc(OC)nc3)nc2)c2c(C#N)cnn2c1 [Embodiment 63, 6-(((R)-2-hydroxy-2-methylbut-3-yn-1-yl)oxy)-4-(6-(6-((6-methoxypyridin-3-yl)methyl)-3,6-diazabicyclo[3.1.1]heptan-3-yl)pyridin-3-yl)pyrazolo[1,5-a]pyridine-3-carbonitrile]",pIC50,,4.77
same,inhibition at 0.1 μmol/L,human,3.24%
same,inhibition at 1 μmol/L,human,8.39%
same,inhibition at 3 μmol/L,human,12.7%
same,inhibition at 10 μmol/L,human,35.4%
same,inhibition at 30 μmol/L,human,58.8%
